Results taken from patent US12565501B2, “Muscarinic acetylcholine M1 receptor antagonists” (Contineum Therapeutics, Inc., priority 2019, dated 2026).

Target: T1, human M1 receptor (Homo sapiens, UniProt P11229)
T1 sequence (P11229 1-460): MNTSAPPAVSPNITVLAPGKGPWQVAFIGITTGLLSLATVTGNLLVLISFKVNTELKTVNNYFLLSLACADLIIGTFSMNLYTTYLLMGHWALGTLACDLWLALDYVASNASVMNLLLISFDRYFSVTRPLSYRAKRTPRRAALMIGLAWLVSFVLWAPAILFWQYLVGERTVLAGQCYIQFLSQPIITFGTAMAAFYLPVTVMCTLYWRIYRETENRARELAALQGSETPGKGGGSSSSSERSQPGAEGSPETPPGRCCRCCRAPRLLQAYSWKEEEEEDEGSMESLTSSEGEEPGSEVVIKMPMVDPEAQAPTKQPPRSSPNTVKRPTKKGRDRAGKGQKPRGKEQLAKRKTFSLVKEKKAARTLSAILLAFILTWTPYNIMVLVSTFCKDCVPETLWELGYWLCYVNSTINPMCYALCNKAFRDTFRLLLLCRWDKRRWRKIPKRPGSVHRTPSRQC
Experiment: In vitro functional assay of muscarinic acetylcholine receptor activity (aequorin calcium flux, reversal of EC80 acetylcholine response)
Assay type: cell-based
Details: CHO-K1 cells stably expressing human M1 receptor with aequorin; acetylcholine at EC80; calcium flux (luminescence); read-out: M1 IC50
How it was run: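 Antagonist mode: compound (final 0.1% DMSO) and coelenterazine-loaded M1/aequorin CHO-K1 cells incubated 30 min in the dark before EC80 acetylcholine addition. Calcium flash integrated as 40 s luminescence AUC; IC50 derived from dose-response curves.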

Structure (SMILES) | IC50 [µM]
COc1cc(C2(/C=C/C(=O)N3CC4CCC(C3)N4c3ccc(C#N)cn3)CCC2)ccn1 [Example 151, 6-(3-((E)-3-(1-(2-methoxypyridin-4-yl)cyclobutyl)acryloyl)-3,8-diazabicyclo[3.2.1]octan-8-yl)nicotinonitrile] | < 0.01
N#Cc1ccc(N2C3CCC2CN(C(=O)C2CC(O)(c4cccc5ncccc45)C2)C3)nc1 (stereo not drawn) [Example 152, 6-(3-(3-hydroxy-3-(quinolin-5-yl)cyclobutane-1-carbonyl)-3,8-diazabicyclo[3.2.1]octan-8-yl)nicotinonitrile] | 1 to 10
COc1cc(C(F)(F)CCC(=O)N2C[C@@H]3C[C@H]2CN3c2ccc(C#N)cn2)ccn1 [Example 154, 6-((1S,4S)-5-(4,4-difluoro-4-(2-methoxypyridin-4-yl)butanoyl)-2,5-diazabicyclo[2.2.1]heptan-2-yl)nicotinonitrile] | 1 to 10
COc1cc(C(F)(F)CCC(=O)N2C[C@@H]3CC[C@H]2CN3c2ccc(C#N)cn2)ccn1 [Example 155, 6-((1S,4S)-5-(4,4-difluoro-4-(2-methoxypyridin-4-yl)butanoyl)-2,5-diazabicyclo[2.2.2]octan-2-yl)nicotinonitrile] | 0.01 to 0.1
COc1cc(C(F)(F)CCC(=O)N2CC3CCC(C2)N3c2ccnc(C#N)c2)ccn1 [Example 156, 4-(3-(4,4-difluoro-4-(2-methoxypyridin-4-yl)butanoyl)-3,8-diazabicyclo[3.2.1]octan-8-yl)picolinonitrile] | 0.1 to 1
COc1cc(C(F)(F)CCC(=O)N2CC3CCC(C2)N3c2ccc(C)nn2)ccn1 [Example 157, 4,4-difluoro-4-(2-methoxypyridin-4-yl)-1-(8-(6-methylpyridazin-3-yl)-3,8-diazabicyclo[3.2.1]octan-3-yl)butan-1-one] | 0.1 to 1
COc1ncccc1C(F)(F)CCC(=O)N1CC2CCC(C1)N2c1ccc(C#N)cn1 [Example 159, 6-(3-(4,4-difluoro-4-(2-methoxypyridin-3-yl)butanoyl)-3,8-diazabicyclo[3.2.1]octan-8-yl)nicotinonitrile] | < 0.01
COc1cncc(C(F)(F)CCC(=O)N2CC3CCC(C2)N3c2ccc(C#N)cn2)c1 [Example 160, 6-(3-(4,4-difluoro-4-(5-methoxypyridin-3-yl)butanoyl)-3,8-diazabicyclo[3.2.1]octan-8-yl)nicotinonitrile] | < 0.01
COc1ccncc1C(F)(F)CCC(=O)N1CC2CCC(C1)N2c1ccc(C#N)cn1 [Example 161, 6-(3-(4,4-difluoro-4-(4-methoxypyridin-3-yl)butanoyl)-3,8-diazabicyclo[3.2.1]octan-8-yl)nicotinonitrile] | < 0.01
N#Cc1ccc(N2C3CCC2CN(C(=O)CCC(F)(F)c2cccc4ncnn24)C3)nc1 [Example 163, 6-(3-(4-([1,2,4]triazolo[1,5-a]pyridin-5-yl)-4,4-difluorobutanoyl)-3,8-diazabicyclo[3.2.1]octan-8-yl)nicotinonitrile] | < 0.01
COc1cc(C2(CCC(=O)N3CC4CCC(C3)N4c3ccc(C#N)cn3)CCC2)ccn1 [Example 164, 6-(3-(3-(1-(2-methoxypyridin-4-yl)cyclobutyl)propanoyl)-3,8-diazabicyclo[3.2.1]octan-8-yl)nicotinonitrile] | < 0.01
[2H]C([2H])([2H])Oc1cc(C(F)(F)CCC(=O)N2CC3CCC(C2)N3c2ccc(C#N)cn2)ccn1 [Example 165, 6-(3-(4,4-difluoro-4-(2-(methoxy-d3)pyridin-4-yl)butanoyl)-3,8-diazabicyclo[3.2.1]octan-8-yl)nicotinonitrile] | 0.01 to 0.1
C[C@@H](OCC(=O)N1C[C@H]2CC[C@@H](C1)N2c1ccc(C#N)cn1)c1ccccc1 [Example 178, 6-(3-(2-((R)-1-phenylethoxy)acetyl)-3,8-diazabicyclo[3.2.1]octan-8-yl)nicotinonitrile] | 0.1 to 1
C[C@H](OCC(=O)N1CC2CCC(C1)N2c1ccc(C#N)cn1)c1ccccc1 [Example 179, 6-(3-(2-((S)-1-phenylethoxy)acetyl)-3,8-diazabicyclo[3.2.1]octan-8-yl)nicotinonitrile] | 0.1 to 1
N#Cc1ccc(N2C3CCC2CN(C(=O)COC2(c4ccccc4)CC2)C3)nc1 [Example 180, 6-(3-(2-(1-phenylcyclopropoxy)acetyl)-3,8-diazabicyclo[3.2.1]octan-8-yl)nicotinonitrile] | 0.01 to 0.1
N#Cc1ccc(N2C3CCC2CN(C(=O)COC2(c4ccccc4Br)CC2)C3)nc1 [Example 181, 6-(3-(2-(1-(2-bromophenyl)cyclopropoxy)acetyl)-3,8-diazabicyclo[3.2.1]octan-8-yl)nicotinonitrile] | 0.01 to 0.1
C[C@H](OCC(=O)N1C[C@H]2CC[C@@H](C1)N2c1ccc(C#N)cn1)c1ccc(F)c(F)c1 [Example 182, 6-(3-(2-((S)-1-(3,4-difluorophenyl)ethoxy)acetyl)-3,8-diazabicyclo[3.2.1]octan-8-yl)nicotinonitrile] | 0.01 to 0.1

Structure (SMILES) | IC50 [µM]
C[C@H](COCC(=O)N1CC2CCC(C1)N2c1ccc(C#N)cn1)c1ccccc1 [Example 186, 6-(3-(2-((S)-2-phenylpropoxy)acetyl)-3,8-diazabicyclo[3.2.1]octan-8-yl)nicotinonitrile] | 1 to 10
N#Cc1ccc(N2C3CCC2CN(C(=O)COCC2(c4ccccc4)CC2)C3)nc1 [Example 187, 6-(3-(2-((1-phenylcyclopropyl)methoxy)acetyl)-3,8-diazabicyclo[3.2.1]octan-8-yl)nicotinonitrile] | 0.1 to 1
N#Cc1ccc(N2C3CCC2CN(C(=O)COCC2(c4ccc(F)cc4)CC2)C3)nc1 [Example 188, 6-(3-(2-((1-(4-fluorophenyl)cyclopropyl)methoxy)acetyl)-3,8-diazabicyclo[3.2.1]octan-8-yl)nicotinonitrile] | 1 to 10
N#Cc1ccc(N2C3CCC2CN(C(=O)COCC2(c4ccncc4)CC2)C3)nc1 [Example 189, 6-(3-(2-((1-(pyridin-4-yl)cyclopropyl)methoxy)acetyl)-3,8-diazabicyclo[3.2.1]octan-8-yl)nicotinonitrile] | 1 to 10
N#Cc1ccc(N2C3CCC2CN(C(=O)COC2(c4ccc(F)cc4)CC2)C3)nc1 [Example 205, 6-(3-(2-(1-(4-fluorophenyl)cyclopropoxy)acetyl)-3,8-diazabicyclo[3.2.1]octan-8-yl)nicotinonitrile] | 0.1 to 1
N#Cc1ccc(N2C3CCC2CN(C(=O)COC2(c4cccc(F)c4)CC2)C3)nc1 [Example 206, 6-(3-(2-(1-(3-fluorophenyl)cyclopropoxy)acetyl)-3,8-diazabicyclo[3.2.1]octan-8-yl)nicotinonitrile] | 0.1 to 1
N#Cc1ccc(N2C3CCC2CN(C(=O)COC2(c4ccccc4F)CC2)C3)nc1 [Example 207, 6-(3-(2-(1-(2-fluorophenyl)cyclopropoxy)acetyl)-3,8-diazabicyclo[3.2.1]octan-8-yl)nicotinonitrile] | 0.01 to 0.1
N#Cc1ccc(N2C3CCC2CN(C(=O)COC2(c4ccc(Br)cc4)CC2)C3)nc1 [Example 208, 6-(3-(2-(1-(4-bromophenyl)cyclopropoxy)acetyl)-3,8-diazabicyclo[3.2.1]octan-8-yl)nicotinonitrile] | 0.1 to 1
N#Cc1ccc(N2C3CCC2CN(C(=O)COC2(c4cccc(Br)c4)CC2)C3)nc1 [Example 209, 6-(3-(2-(1-(3-bromophenyl)cyclopropoxy)acetyl)-3,8-diazabicyclo[3.2.1]octan-8-yl)nicotinonitrile] | 0.1 to 1
N#Cc1ccc(N2C3CCC2CN(C(=O)COC2(c4cccc(F)c4F)CC2)C3)nc1 [Example 211, 6-(3-(2-(1-(2,3-difluorophenyl)cyclopropoxy)acetyl)-3,8-diazabicyclo[3.2.1]octan-8-yl)nicotinonitrile] | 0.01 to 0.1
N#Cc1ccc(N2C3CCC2CN(C(=O)COC2(c4cc(F)ccc4F)CC2)C3)nc1 [Example 213, 6-(3-(2-(1-(2,5-difluorophenyl)cyclopropoxy)acetyl)-3,8-diazabicyclo[3.2.1]octan-8-yl)nicotinonitrile] | 0.01 to 0.1
N#Cc1ccc(N2C3CCC2CN(C(=O)COC2(c4ccc(Cl)c(Cl)c4)CC2)C3)nc1 [Example 214, 6-(3-(2-(1-(3,4-dichlorophenyl)cyclopropoxy)acetyl)-3,8-diazabicyclo[3.2.1]octan-8-yl)nicotinonitrile] | 0.01 to 0.1
N#Cc1ccc(N2C3CCC2CN(C(=O)COC2(c4ccc(F)c(Br)c4)CC2)C3)nc1 [Example 215, 6-(3-(2-(1-(3-bromo-4-fluorophenyl)cyclopropoxy)acetyl)-3,8-diazabicyclo[3.2.1]octan-8-yl)nicotinonitrile] | 0.01 to 0.1
N#Cc1ccc(N2C3CCC2CN(C(=O)COC2(c4cc(F)cc(Br)c4)CC2)C3)nc1 [Example 217, 6-(3-(2-(1-(3-bromo-5-fluorophenyl)cyclopropoxy)acetyl)-3,8-diazabicyclo[3.2.1]octan-8-yl)nicotinonitrile] | 0.01 to 0.1
N#Cc1ccc(N2C3CCC2CN(C(=O)COC2(c4cccc(Br)c4F)CC2)C3)nc1 [Example 219, 6-(3-(2-(1-(3-bromo-2-fluorophenyl)cyclopropoxy)acetyl)-3,8-diazabicyclo[3.2.1]octan-8-yl)nicotinonitrile] | 0.01 to 0.1
N#Cc1ccc(N2C3CCC2CN(C(=O)COC2(c4cc(F)ccc4Br)CC2)C3)nc1 [Example 220, 6-(3-(2-(1-(2-bromo-5-fluorophenyl)cyclopropoxy)acetyl)-3,8-diazabicyclo[3.2.1]-8-yl)nicotinonitrile] | < 0.01
